Measurements taken from patent US5808109A, “Compounds that inhibit complement and/or suppress immune activity” (T Cell Sciences, Inc., priority 1995, dated 1998).
Values joined by “and” are separate entries in the source; they are usually repeats but may differ in a detail not shown here. Identical values can stand only once. Counter-ions that a name gives are not always drawn. Like-named read-outs stand apart in the source and are kept apart here.

Tests used:
C3a production = assay: Inhibition of C3a production in human serum (aggregated IgG, RIA); assay type: biochemical; conditions: for IC50: human serum, concentration inhibiting C3a production 50% relative to control
Protocol: (§1) The ability to inhibit complement was tested by assaying for specific inhibition of C3a and C5a production. For all experiments, a single human serum pool, to be used as a source of complement, was aliquoted and stored frozen at -70° C. Human IgG was heat-aggregated, aliquoted, and stored frozen at -70° C. For each experiment, serum aliquots were equilibrated at 37° C. with varying concentrations of the compounds tested. The classical complement pathway was initiated by the addition of aggregated human IgG. Control samples containing no IgG were always included. After a fixed reaction time of 10 minutes (determined in an earlier time-course study to provide a convenient time interval during which the production of C5a or C3a is nearly complete, i.e., greater than 90%), the levels of the released complement peptides (C5a or C3a) were determined by radioimmunoassay using commercially available radioimmunoassay (RIA) kits (C5a RIA, UpJohn Cat. No. 3250-02; C3a RIA, UpJohn Cat. No. 3245-01; C5a RIA, Amersham Cat. No. RPA.520; C3a RIA, Amersham RPA.518).
(§2) Since a competitive immunoassay was used, complement peptide (C5a and C3a) concentrations varied inversely with the counts. The Counts Bound (CB) for a sample was defined as the total counts (in counts per minute, cpm) measured in the pellet minus the counts measured in a nonspecific binding (NSB) control. The NSB control was a sample containing only tracer peptide (^125 I-labelled) and second precipitating antiserum; it contained no C5a- or C3a-specific antiserum.
(§3) The y-axis in FIG. 2 represents the fraction inhibition. The fraction inhibition is equal to the Counts Bound (CB) for a "sample," less the CB in the "sample with no added compound," divided by the CB for the "no IgG control" less the CB in the "sample with no added compound." [formula]
(§4) FIG. 2 is representative of the data plots obtained from the assays described above.

[1] = system: human peripheral blood lymphocytes (PBL); assay: Inhibition of proliferation of peripheral blood lymphocytes, 3H-thymidine incorporation; assay type: cell-based; conditions: Lymphocyte, Table IX, 72 h
Protocol: The proliferation of human peripheral blood lymphocytes (PBL) in response to phytohemagglutinin (PHA, Well-come) or anti-CD3 monoclonal antibody (OKT-3, Ortho) was assessed by the incorporation of ^3 H-thymidine. Compound 11a was diluted in culture media to the desired concentrations, human PBL were added to a final concentration of 10^6 cells/ml, and then either PHA (Wellcome) or anti-CD3 (OKT3, Ortho) antibody (final concentration, […]) was added to initiate proliferation. The final volume per sample was 100 μl. The cells were incubated for 72 hours after stimulation, pulsed with 1 μCi ^3 H-thymidine per sample for 4 hours, harvested, and counted in a scintillation counter. […] Because cell viability was unaffected by the presence of 11a (see supra), the inhibition apparently was not due to cytotoxic effects.

human complement = assay: Inhibition of complement-mediated hemolysis, human serum, sensitized sheep erythrocytes; assay type: biochemical
Protocol: The ability to inhibit complement was also tested by assaying for inhibition of complement-mediated red cell lysis (hemolysis). The inhibition of hemolysis was determined as a function of compound concentration. The compounds to be tested were diluted in 0.1M Hepes buffer (0.15N NaCl, pH 7.4), and 50 μl were added to each well of a V-bottom microtiter plate. Human serum, used as the complement source, was diluted 1 to 500 in Hepes buffer, and 50 μl were added to each well. Next, commercially available sheep erythrocytes with anti-sheep antibody (Diamedix Cat. No. 789-001) were used as received and added at 100 μl/well to initiate the complement pathway leading to hemolysis. The plate was incubated for 60 minutes at 37° C. and then centrifuged at 500×g for 10 minutes. The supernatants were removed and placed in a flat-bottom microtiter plate. The extent of hemolysis was measured as a function of the sample absorbance at 410 nm. The maximal absorbance (corresponding to maximal hemolysis), Amax, was obtained from the absorbance value of an erythrocyte sample containing only human serum, AS, less the absorbance of a sample containing only the red cells, A0. Thus, Amax =AS -A0. The difference between the absorbance of an erythrocyte sample containing both human serum and inhibitive compound, and the absorbance of a cell sample containing inhibitive compound only, was defined as Asample. The inhibition, IH, was expressed as the fraction (Amax -Asample)/Amax, and IH50 was defined as the concentration of inhibitive compound required to produce a value of IH=1/2.
The 4 substituted spirobenzofuran compounds of example 7 and the disubstituted spirobenzofuran compounds of example 8 were tested for their capacity to inhibit complement-mediated lysis of sheep red blood cells (SRBC) as described in Section 6.6.2 supra with the modification that the human serum used as the complement source was diluted to 1 to 100 in Hepes buffer, instead of […]. The results of the hemolysis assays are shown in FIG. 8 and Tables XI and XII.

C5a production = assay: Inhibition of C5a production in human serum (aggregated IgG, RIA); assay type: biochemical; conditions: concentration inhibiting C5a production 50% relative to control
Protocol: as §1, §2, §3, §4

[2] = system: hyperacute graft rejection; assay: Guinea pig-to-rat cardiac transplant (discordant xenograft); assay type: in vivo; conditions: 28 mg/rat intravenous bolus; for Graft survival time: individual animals
Protocol: The effects of compounds 68 and 44a on hyperacute graft rejection were tested in a model of discordant xenografting. The methods were the same as described previously (Prewitt et al., 1991, Transplantation 52:868-873) except that the test compounds were substituted for the active agent (sCR1) of the earlier study. As indicated in the earlier study, male Lewis rats, 12-16 weeks of age, and male Hartley guinea pigs, 4-10 weeks of age (Charles River, Wilmington, Mass.) served as cardiac xenograft recipients and donors, respectively. Under Halothane anesthesia, heterotopic cardiac xenotransplantation was performed by a modification of the microvascular technique of Ono and Lindsey, 1990, J. Thorac. Cardiovas.
Cardiac xenografts were evaluated visually over the first 30 minutes following reperfusion and then, following abdominal closure, every 10 minutes by palpation until rejection. Rejection was defined as total cessation of cardiac xenograft contraction and was confirmed by direct visualization and histological examination. […] Control animals received similar volumes of PBS. Three (n=3) control animals were tested concurrent with the animals receiving compound 68; data from historic controls (n=13) subjected to the same procedure and previously reported (Pruitt et al., 1991, Transplantation 52:868-873) are also included for comparison. Table XV includes the xenograft survival times (minutes) for individual animals and the means and standard errors of the mean (SEM) for the various groups.

[3] = system: alternative complement pathway; assay: Inhibition of alternative pathway mediated hemolysis, rabbit erythrocytes, human serum; assay type: biochemical; conditions: Table XIV, human serum 1 in 24, read-out: Alternative pathway AH50
Protocol: The capacity of the substituted dihydrobenzofurans to inhibit the alternative complement pathway was assessed using the modified method of Platts-Mills and Ishizaka, 1974, J. Immunol., 113:348-358. Essentially, rabbit erythrocytes were lysed using human serum as complement in gelatin veronal buffer (GVB, Sigma, St. Louis, Mo.) with added EGTA (ethylene glycol-bis[β-aminoethyl ether]N,N,N^1,N^1 -tetraacetic acid) and Mg^2+ to 8 mM and 2 mM, respectively. Rabbit erythrocytes (4.5×10^6 cells/ml), human serum (1 in 24 dilution), and the compounds to be tested were incubated one hour at 37° C. in a V-bottom microtiter plate, cells pelleted by centrifugation, the supernatants transferred to a flat-bottom microtiter plate, and the absorbance at 410 nm determined. Samples were paired with identical controls lacking human serum (complement-independent lysis). Both samples and controls were run in triplicate. Control values were subtracted from sample values and the fractional inhibition was determined relative to the uninhibited (no added compound) sample. Results are reported as the concentration of compound yielding fifty per cent (50%) inhibition, AH50. The AH50 values for several of the compounds are included along with the results of other in vitro assays in Table XIV.

rat complement = assay: Inhibition of complement-mediated hemolysis, rat serum as complement source; assay type: biochemical; conditions: Table XIII; read-out: IH50 for Rat Complement
factor I = molecular target: T1, factor I (Homo sapiens, UniProt P05156); assay: Inhibition of C3b proteolysis by factor I (SDS-PAGE densitometry); assay type: biochemical; conditions: sCR1 8 nM as cofactor, C3b 1.2 μM, factor I 0.1 μM, 60 min 37° C.; read-out: C3b cleavage by Factor I, concentration yielding 50% inhibition
T1 construct: purchased Cytotech, San Diego, Calif
T1 sequence (P05156 340-583 limits assumed): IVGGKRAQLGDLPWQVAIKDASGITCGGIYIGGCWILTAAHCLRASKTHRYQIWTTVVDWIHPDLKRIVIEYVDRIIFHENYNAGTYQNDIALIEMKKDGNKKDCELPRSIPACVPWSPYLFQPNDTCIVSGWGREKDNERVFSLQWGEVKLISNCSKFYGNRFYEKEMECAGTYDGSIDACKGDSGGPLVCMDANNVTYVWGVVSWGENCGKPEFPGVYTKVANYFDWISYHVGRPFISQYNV
From the text: The reactions were stopped by the addition of reducing SDS-PAGE sample buffer (Laemmli, 1970, Nature, 227:680-685) subjected to electrophoresis on 4-20% polyacrylamide gradient gels, visualized with Coomassie Blue stain, and quantitated by densitometry. Controls lacking factor I and controls with factor I but lacking test compounds were included. Results are reported as the concentration of test compound which inhibited approximately fifty percent (50%) of the C3b a-chain degradation, IC50.

[4] = system: guinea pig serum complement; conditions: sensitized sheep erythrocytes, read-out: concentration reducing hemolysis 50%; cited from earlier work
[5] = PHA stimulation, read-out: IP50 PHA-stimulated PBL
[6] = anti-CD3 (OKT-3) stimulation, read-out: IP50 OKT-3-stimulated PBL
[7] = Table VII, human serum, read-out: IHO50
[8] = Table XI, human serum diluted 1 to 100, read-out: IH50 Mean
[9] = Table XII, human serum diluted 1 to 100, read-out: IH50 Mean
[10] = Table XIII, read-out: IH50 for Human Complement
[11] = Table XIV, read-out: Classical pathway IH50

Compound | IC50 (C3a production) | IC50 (C5a production) | IC50 (human complement; [7]) | IC50 (human complement; [8]) | IC50 (human complement; [10]) | IC50 (human complement; [11]) | IC50 [3] | IC50 (factor I) | further results
COc1ccc(C(=O)O)c2c1CC(C)(C1CC=C(C)CC1)O2 (single isomer, unassigned; (+)) [(+)-20a] | > 14000 µM | 8000 µM | 680 µM | – | – | – | – | – | IC50 [1, 5]: 2100 µM; IC50 [1, 6]: 1700 µM
CC1=CCC(C2(C)Cc3c(O)ccc(C(=O)O)c3O2)CC1 (single isomer, unassigned; (+)) [(+)-23a] | > 14000 µM | > 14000 µM | 2100 µM | – | – | – | – | – | –
COc1ccc(C(=O)O)c2c1CC(C)(C1CC=C(C)CC1)O2 (single isomer, unassigned; (-)) [(-)-20a] | 11000 µM | 6000 µM | 380 µM | – | – | – | – | – | –
COc1cc(C(=O)O)cc2c1CC1(CCCCC1)O2 [Compound 44a, 6-CARBOXYL-4-METHOXYSPIRO[BENZOFURAN-2(3H)-CYCLOHEXANE] SODIUM SALT] | – | – | – | 530 µM | 538 µM | 530 µM | > 5030 µM | 2740 µM | Graft survival time Mean ± SEM [2]: 8 min; Graft survival time ([2]; SODIUM SALT): 7 min and 9 min; IC50 (human complement; [9]): 532 µM; IC50 (rat complement): 17300 µM
COc1cc(C(=O)O)c(C=O)c2c1CC1(CCCCC1)O2 [Compound 68, 6-carboxy-7-formyl-4-methoxyspiro[benzofuran-2(3H)-cyclohexane]] | – | – | – | 164 µM | 100 µM and 164 µM | 160 µM | 1360 µM | 150 µM | Graft survival time Mean ± SEM [2]: 142 ± 76 min; graft survival relative to controls [2]: prolonged graft survival times in 2 of the 3 animals; Graft survival time [2]: 7 min and 150 min and 270 min; effectiveness in inhibiting complement-mediated hemolysis compared with K76COOH (human complement): more effective
CC1CCC2C(C)(C)C(O)C(O)CC2(C)C12Cc1c(O)cc(C(=O)O)c(C=O)c1O2 (centres unmarked) [K76COOH, reference compound] | – | – | – | 570 µM | – | 570 µM | 850 µM | 110 µM | IC50 (human complement; [9]): 570 µM
CC1CCC2C(C)(C)C(O)C(O)CC2(C)C12Cc1c(O)cc(C(=O)O)c(C=O)c1O2 (centres unmarked) [K-76 COONa, reference compound] | – | 3000 µM | 570 µM | – | – | – | – | – | inhibition of C3a production (C3a production; at a concentration of about 8.5 mM): Only marginal inhibition; IC50 [1, 5]: 500 µM; IC50 [1, 6]: 500 µM; IC50 [4]: 341 µM
sCR1: soluble human recombinant complement receptor type 1, used as a positive control in the in vitro assays | – | – | – | – | 0.0009 µM | – | – | – | IC50 (rat complement): 0.0015 µM

Now from value to compound, other results behind:

IC50 (C3a production) | IC50 (C5a production) | Compound | IC50 (human complement; [7]) | IC50 (human complement; [8]) | IC50 (human complement; [10]) | IC50 (human complement; [11]) | IC50 [3] | IC50 (factor I) | further results
13000 µM | 8000 µM | COc1ccc(C(=O)O)c(O)c1CC1=CCCCC1 [Compound 12a, 3-(1'-CYCLOHEXENYL)METHYL-2-HYDROXY-4-METHOXYBENZOIC ACID] | 2100 µM | – | – | – | – | – | –
18000 µM | 9000 µM | COc1ccc(C=O)c(O)c1CC1=CCCCC1 [Compound 12b, 3-(1'-CYCLOHEXENYL)METHYL-2-HYDROXY-4-METHOXYBENZALDEHYDE] | – | – | – | – | – | – | –
